Source: patent US20240199676A1, “ANTIVIRAL COMPOUNDS AND METHODS OF MAKING AND USING THE SAME” (Gilead Sciences, Inc., priority 2022, published 2024)

What was measured:
[1] = GI S9 stability (Ex. Z), dog intestinal S9; type: in vitro ADME; conditions: pooled intestinal S9 fractions; dog intestinal S9, 1.0 mg/mL protein, 2 μM substrate, pH 7.4; read-out: GIS9 DOG T½ (per Ex. Z)
Description: (§1) Example Z: GI S9 stability data:
(§2) Stock solutions of test compounds in dimethyl sulfoxide (DMSO) having a final concentration of 10 mM were prepared and used in all experiments. Sekisui XenoTech (Kansas City, KS) provided pooled intestinal S9 fractions. All other chemicals were purchased from Sigma-Aldrich (St. Louis, MO) or VWR (West Chester, PA). Internal Standard/Quench (IS/Q) used to stop reactions was 100 nM labetalol in (by volume) methanol (10%) and acetonitrile (90%).
(§3) Stability in Intestinal S9 Fractions: Duplicate aliquots of test compound or positive control substrate were added to S9 stock diluted with phosphate buffered saline (137 mM NaCl, 2.7 mM KCl, 10 mM phosphate buffer), pH 7.4, to obtain a protein concentration of 1.0 mg/mL. The metabolic reactions were initiated by the addition of the substrates to the S9 reaction mixture to a final concentration of 2 μM. At 0, 10, 20, 30, 60 and 120 min, 25 μL aliquots of the reaction mixture were transferred to plates containing 225 μl of IS/Q solution. After quenching, the plates were centrifuged at 3000×g for 30 minutes. 150 μL aliquots of each supernatant were dried down then reconstituted with 300 μL water. Aliquots (10 μL) of the prepared samples were analyzed on a Thermo Q-Exactive mass spectrometer as described below.
(§4) Liquid Chromatography—Mass Spectrometry: Quantification of test compounds and control substrate was performed by analyte/internal standard peak area ratio (PAR) values measured on a Thermo Q-Exactive mass spectrometer coupled to a Dionex UltiMate 3000 HPLC with a Leap Technologies HTC PAL autosampler. The column used for analysis was a Waters Acquity BEH C18 (1.7 μm particle size, 2.1×50 mm). Mobile phase A consisted of 0.1% (v/v) formic acid in water. Mobile phase B consisted of 0.1% (v/v) formic acid in acetonitrile. Elution of analytes was achieved by a series of linear gradients varying the proportions of A and B. The mass spectrometer was calibrated on a weekly basis and mass tolerance of 5 ppm was used.
(§5) Metabolic stabilities in S9 fractions were determined by measuring the rates of disappearance of test compound and positive control substrate.
(§6) Data (% of substrate remaining) were plotted on a semi-log scale and fitted using an exponential decline model:
(§7) Where Ct—% of substrate remaining at time=t; C0—% of substrate remaining at time=0; t—time; T½—half-life The Half-life (T½) is determined by the following equation: […]
(§8) Assuming a first-order reaction, the slope (k) is extrapolated from the aforementioned plotted data.

[2] = tested on: Respiratory syncytial virus recombinant with luciferase (RSV-Luc5) in NHBE cells; test: NHBE RSV-Luc5 384-well Assay (EC50 RSVFLUC NHBE-384, Ex. U); type: cell-based; conditions: human respiratory syncytial virus, 72 h, read-out: EC50 RSV FLUC NHBE 384 (per Ex. U)
From the text: Example U. NHBE RSV-Luc5 384-well Assay (EC50 RSVFLUC NHBE-384)
Normal Human Bronchial Epithelial (NHBE) cells were purchased from Lonza (Walkersville, MD Cat #CC2540) and maintained in BEGM Bronchial Epithelial Cell Growth Medium BulletKit (Lonza CC-3170).
Cells were thawed, expanded, and were used for experiments at passage 2. Respiratory syncytial virus recombinant with luciferase (RSV-Luc5) (≥1×10^7 Infectious Units/ml (IU/ml) determined by TCID50) was purchased from Microbiologics (Saint Cloud, MN). Viral replication was determined in NHBE cells in the following manner.
Compounds are prepared in 100% DMSO in 384-well polypropylene plates (Greiner, Monroe, NC, Cat #784201) with 8 compounds per plate in grouped replicates of 4 at 10 serially diluted concentrations (1:3). The serially diluted compounds were transferred to low dead volume Echo plates (Labcyte, Sunnyvale, CA, Cat #LP-0200).
The test compounds were spotted to 384-well assay plates (Greiner, Monroe, NC, Cat#781091) at 200 nL per well. NHBE cells were harvested and suspended in BEGM Bronchial Epithelial Cell Growth Medium BulletKit and seeded to the pre-spotted assay plates at 5,000 cells per well in 30 μL. RSV-Luc5 virus was diluted in BEGM Bronchial Epithelial Cell Growth Medium BulletKit at 500,000 Infectious Units (IU) per mL and 10 μL per well was added to the assay plates containing cells and compounds, for an MOI of 1. The assay plates were incubated for 3 days at 37° C. and 5% CO2. At the end of incubation, One-Glo reagent (Promega, Madison, WI, Cat #E6120) was prepared. The assay plates and One-Glo reagent were equilibrated to room temperature for at least 15 minutes. 40 μL per well of One-Glo reagent was added and the plates were incubated at room temperature for 15 minutes before reading the luminescence signal on an EnVision multimode plate reader (Perkin Elmer, Waltham, MA). Remdesivir was used as positive control and DMSO was used as negative control. Values were normalized to the positive and negative controls (as 0% and 100% replication, respectively) and data was fitted using non-linear regression analysis by Gilead's dose response tool. The EC50 value for each compound was defined as the concentration reducing the viral replication by 50%.

[3] = GI S9 stability (Ex. Z), cyno intestinal S9; type: in vitro ADME; conditions: cynomolgus monkey, pooled intestinal S9 fractions; cyno intestinal S9, 1.0 mg/mL protein, 2 μM substrate, pH 7.4; read-out: GIS9 Cyno T½ (per Ex. Z)
Description: as §1, §2, §3, §4, §5, §6, §7, §8

Which results are given for `CC(=O)OC[C@@]1(C#N)O[C@@H](c2ccc3c(N)ncnn23)[C@H](O)[C@@H]1O` [Compound 4, ((2R,3S,4R,5S)-5-(4-aminopyrrolo[2,1-f][1,2,4]triazin-7-yl)-2-cyano-3,4-dihydroxytetrahydrofuran-2-yl)methyl acetate]?
half-life at 2 μM [1]: 41 min; EC50 [2]: 11 µM; half-life at 2 μM [3]: 9 min

Which half-life at 2 μM [1] does the source give for `N#C[C@]1(COC(=O)C2CCC2)O[C@@H](c2ccc3c(N)ncnn23)[C@H](O)[C@@H]1O` [Compound 8, ((2R,3S,4R,5S)-5-(4-aminopyrrolo[2,1-f][1,2,4]triazin-7-yl)-2-cyano-3,4-dihydroxytetrahydrofuran-2-yl)methyl cyclobutanecarboxylate] here?
Its half-life at 2 μM is 10 min.

And the EC50 [2]?
Its EC50 is 8.79 µM.

And the half-life at 2 μM [3]?
Its half-life at 2 μM is 4 min.

Which results are given for `Cc1ccc(C(=O)OC[C@@]2(C#N)O[C@@H](c3ccc4c(N)ncnn34)[C@H](O)[C@@H]2O)cc1` [Compound 14, ((2R,3S,4R,5S)-5-(4-aminopyrrolo[2,1-f][1,2,4]triazin-7-yl)-2-cyano-3,4-dihydroxytetrahydrofuran-2-yl)methyl 4-methylbenzoate]?
half-life at 2 μM [1]: 426 min; EC50 [2]: 8.82 µM; half-life at 2 μM [3]: 22 min

Which half-life at 2 μM [1] does the source give for `CC(C)C(=O)OC[C@@]1(C#N)O[C@@H](c2ccc3c(N)ncnn23)[C@H](O)[C@@H]1O` [Compound 1, ((2R,3S,4R,5S)-5-(4-aminopyrrolo[2,1-f][1,2,4]triazin-7-yl)-2-cyano-3,4-dihydroxytetrahydrofuran-2-yl)methyl isobutyrate] here?
Its half-life at 2 μM is 121 min.

And the EC50 [2]?
The EC50 was 22.1 µM.

What about the half-life at 2 μM [3] of the same compound?
The half-life at 2 μM was 25 min.
